Results reported in patent publication US9145392B2, “Imidazole amines as modulators of kinase activity” (Merck Patent GmbH, priority 2011, dated 2015).

Assays:
P70S6K (T412E mutant) = P70S6K (T412E mutant) (Homo sapiens (Human), UniProt P23443, T412E); assay: P70S6K enzyme assay; type: biochemical; details: read-out: IC50 p70S6K
In short: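 Read-out is the substrate/phosphopeptide ratio from mobility-shift electrophoresis on a LabChip 3000.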

His-AKT (Full Length) = His-AKT (Full Length) (Homo sapiens (Human), UniProt P31749); assay: AKT enzyme assay; type: biochemical; details: read-out: IC50 AKT
His-AKT (Full Length), sequence (P31749 whole entry): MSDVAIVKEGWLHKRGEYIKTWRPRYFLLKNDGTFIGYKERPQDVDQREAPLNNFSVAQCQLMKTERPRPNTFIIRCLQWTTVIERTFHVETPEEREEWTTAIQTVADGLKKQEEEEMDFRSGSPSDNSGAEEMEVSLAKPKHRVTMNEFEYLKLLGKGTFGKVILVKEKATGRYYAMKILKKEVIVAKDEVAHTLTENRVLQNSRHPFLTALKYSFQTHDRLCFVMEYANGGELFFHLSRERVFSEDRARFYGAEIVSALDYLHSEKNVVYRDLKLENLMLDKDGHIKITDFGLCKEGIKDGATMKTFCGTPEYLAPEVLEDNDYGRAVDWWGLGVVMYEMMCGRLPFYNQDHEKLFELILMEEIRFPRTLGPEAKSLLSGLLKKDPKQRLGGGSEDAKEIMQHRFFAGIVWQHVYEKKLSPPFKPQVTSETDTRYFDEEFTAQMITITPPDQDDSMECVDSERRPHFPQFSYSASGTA

P70S6K (T412E mutant), sequence (P23443 whole entry T412E): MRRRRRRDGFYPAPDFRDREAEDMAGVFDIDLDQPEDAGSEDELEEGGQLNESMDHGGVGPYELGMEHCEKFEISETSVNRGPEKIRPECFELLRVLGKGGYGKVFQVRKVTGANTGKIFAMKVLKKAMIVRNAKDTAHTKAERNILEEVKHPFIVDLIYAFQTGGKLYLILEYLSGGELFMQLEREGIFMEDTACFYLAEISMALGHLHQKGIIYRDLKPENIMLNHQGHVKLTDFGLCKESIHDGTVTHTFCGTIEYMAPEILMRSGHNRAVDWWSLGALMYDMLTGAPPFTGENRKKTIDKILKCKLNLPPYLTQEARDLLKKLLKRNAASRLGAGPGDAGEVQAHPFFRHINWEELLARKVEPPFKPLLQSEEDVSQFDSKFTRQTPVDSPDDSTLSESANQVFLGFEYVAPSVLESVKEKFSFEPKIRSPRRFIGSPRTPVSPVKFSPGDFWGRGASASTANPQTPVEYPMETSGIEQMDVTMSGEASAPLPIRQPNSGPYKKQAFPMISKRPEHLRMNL

IC50 (P70S6K (T412E mutant))	IC50 (His-AKT (Full Length))	Structure (SMILES)
2.5 nM	16 nM	CNCCn1cc(-c2ccc(F)c(C)c2)nc1C1CCN(c2ncnc(N)c2C(N)=O)CC1 [Compound 397, 4-Amino-6-{4-[4-(4-fluoro-3-methyl-phenyl)-1-(2-methylamino-ethyl)-1H-imidazol-2-yl]-piperidin-1-yl}-pyrimidine-5-carboxylic acid amide]
2.1 nM	1.5 nM	CCOc1c(N)ncnc1N1CCC(c2nc(-c3ccc(F)c(C(F)(F)F)c3)cn2CCNC(C)C)CC1 [Compound 398, 5-Ethoxy-6-{4-[4-(4-fluoro-3-trifluoromethyl-phenyl)-1-(2-isopropylamino-ethyl)-1H-imidazol-2-yl]-piperidin-1-yl}-pyrimidin-4-ylamine]
2.5 nM	56 nM	Cc1cc(-c2cn(CC3CN(CO)C3)c(C3CCN(c4ncnc(N)c4C(C)C)CC3)n2)ccc1F [Compound 399, {3-[2-[1-(6-Amino-5-isopropyl-pyrimidin-4-yl)-piperidin-4-yl]-4-(4-fluoro-3-methyl-phenyl)-imidazol-1-ylmethyl]-azetidin-1-yl}-methanol]
0.06 nM	0.3 nM	CCc1c(N)ncnc1N1CCC(c2nc(-c3ccc(F)c(C)c3)cn2CC2CN(C)C2)CC1 [Compound 400, 5-Ethyl-6-{4-[4-(4-fluoro-3-methyl-phenyl)-1-(1-methyl-azetidin-3-ylmethyl)-1H-imidazol-2-yl]-piperidin-1-yl}-pyrimidin-4-ylamine]

More lines, now with the values behind:

Structure (SMILES)	IC50 (P70S6K (T412E mutant))	IC50 (His-AKT (Full Length))
CNCCn1cc(-c2ccc(F)c(C)c2)nc1C1CCN(c2ncnc(N)c2C#N)CC1 [Compound 394, 4-Amino-6-{4-[4-(4-fluoro-3-methyl-phenyl)-1-(2-methylamino-ethyl)-1H-imidazol-2-yl]-piperidin-1-yl}-pyrimidine-5-carbonitrile]	0.9 nM	1.7 nM
NC(=O)c1c(N)ncnc1N1CCC(c2nc(-c3ccc(F)c(C(F)(F)F)c3)cn2CCO)CC1 [Compound 395, 4-Amino-6-{4-[4-(4-fluoro-3-trifluoromethyl-phenyl)-1-(2-hydroxy-ethyl)-1H-imidazol-2-yl]-piperidin-1-yl}-pyrimidine-5-carboxylic acid amide]	1.6 nM	180 nM
CCOc1c(N)ncnc1N1CCC(c2nc(-c3ccc(F)c(C)c3)cn2CCO)CC1 [Compound 396, 2-[2-[1-(6-Amino-5-ethoxy-pyrimidin-4-yl)-piperidin-4-yl]-4-(4-fluoro-3-methyl-phenyl)-imidazol-1-yl]-ethanol]	3.5 nM	340 nM
